Test results from US6706663B2, “Herbicidal 3-heterocyclic substituted benzisothiazole and benzisoxazole compounds” (Wyeth, priority 2000, dated 2004).

Tests used:
[1] = tested on: GALAP (Galium aparine); experiment: Postemergence herbicidal evaluation; assay type: in vivo; conditions: postemergence
Outline: (§1)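 Seedlings grown about two weeks in flats, sprayed, then kept under standard greenhouse care. Rated visually 4–5 weeks after treatment on a 0–9 scale (stand, vigour, malformation, size, chlorosis, overall appearance) relative to untreated control; repeat tests averaged.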

[2] = tested on: ECHCG (Echinochloa crus-galli); experiment: Postemergence herbicidal evaluation; assay type: in vivo, (L.) Beau; conditions: postemergence
Outline: as §1

[3] = tested on: SETVI (Setaria viridis); experiment: Postemergence herbicidal evaluation; assay type: in vivo, (L.) Beau; conditions: postemergence
Outline: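 ~2-wk seedlings; spray 0.0040–1.000 kg/ha in 50/50 acetone/water + 0.5% TWEEN 20, 40 psi nozzle. Greenhouse hold; visual 0–9 rating vs control at 4–5 wk; multiple tests averaged.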

[4] = tested on: TRZAWR (Wheat, Winter, cv Riband); experiment: Postemergence herbicidal evaluation; assay type: in vivo, Triticum aestivum; conditions: postemergence
Outline: as §1

[5] = tested on: ZEAMX (Corn, Field); experiment: Postemergence herbicidal evaluation; assay type: in vivo, Zea mays, L.; conditions: postemergence
Outline: as §1

[6] = tested on: GALAP (Galium aparine); experiment: Preemergence herbicidal evaluation; assay type: in vivo; conditions: rated 4-5 weeks after treatment
Outline: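 Visual 0–9 rating versus control (stand, vigor, malformation, size, chlorosis, overall appearance), scored four to five weeks post-treatment. Preemergence spray of aqueous acetone solution onto freshly seeded soil cups; plants grown under conventional greenhouse care.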

[7] = tested on: ORYSAT (Rice, Tebonnet); experiment: Preemergence herbicidal evaluation; assay type: in vivo, Oryza sativa, (L.) Tebonnet; conditions: rated 4-5 weeks after treatment
[8] = tested on: ECHORC (Echinochloa oryzoides); experiment: Flooded paddy, preemergence weed control; assay type: in vivo, Echinochloa oryzoides (Ard.) Fritsch.; conditions: rated 3-4 weeks after treatment, 0-9 rating scale
Outline: (§2)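 Greenhouse paddy test, preemergence. Seeds planted in the top 0.5 cm of silt loam soil, which remained flooded at 1.5–3 cm depth. Scored 0-9 by visual comparison with control.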

[9] = tested on: SAGPY (Sagittaria pygmaea); experiment: Flooded paddy, preemergence weed control; assay type: in vivo, L.; conditions: rated 3-4 weeks after treatment, 0-9 rating scale
Outline: as §2

[10] = preemergence, rate 0.0620 kg/ha
[11] = preemergence, rate 0.1250 kg/ha
[12] = preemergence, rate 0.2500 kg/ha

Structure (SMILES) | GALAP herbicidal rating ([1]; rate 0.0320 kg/ha) | GALAP herbicidal rating ([1]; rate 0.0620 kg/ha) | ECHCG herbicidal rating ([2]; rate 0.0320 kg/ha) | ECHCG herbicidal rating ([2]; rate 0.0620 kg/ha) | SETVI herbicidal rating ([3]; rate 0.0320 kg/ha) | TRZAWR herbicidal rating ([4]; rate 0.0320 kg/ha) | TRZAWR herbicidal rating ([4]; rate 0.0620 kg/ha) | ZEAMX herbicidal rating ([5]; rate 0.0320 kg/ha) | ZEAMX herbicidal rating ([5]; rate 0.0620 kg/ha) | Preemergence herbicidal rating GALAP ([6]; Rate 0.0620 kg/ha) | Preemergence herbicidal rating GALAP ([6]; Rate 0.1250 kg/ha) | Preemergence herbicidal rating GALAP ([6]; Rate 0.2500 kg/ha) | Preemergence herbicidal rating ORYSAT ([7]; Rate 0.0620 kg/ha) | Preemergence herbicidal rating ORYSAT ([7]; Rate 0.1250 kg/ha) | Preemergence herbicidal rating ORYSAT ([7]; Rate 0.2500 kg/ha) | herbicidal rating, ECHORC ([8]; rate 0.0320 kg/ha) | herbicidal rating, ECHORC ([8]; rate 0.1250 kg/ha) | herbicidal rating, SAGPY ([9]; rate 0.0320 kg/ha) | herbicidal rating, SAGPY ([9]; rate 0.1250 kg/ha) | SETVI herbicidal rating ([3]; rate 0.0620 kg/ha) | also measured
Cc1cnn(-c2nsc3ccc(-n4c(=O)cc(C(F)(F)F)n(C)c4=O)cc23)c1 [Compound 59, 1-methyl-3-[3-(4-methylpyrazol-1-yl)-1,2-benzisothiazol-5-yl]-6-(trifluoromethyl)uracil] | 0.0 | 3.0 | 0.0 | 0.0 | 0.0 | 3.0 | 3.5 | 5.5 | 6.5 | 5.0 | 5.0 | 4.0 | 1.0 | 2.0 | 2.0 | 0.0 | 3.0 | 0.0 | 0.0 |  | GALAP herbicidal rating ([1]; rate 0.1250 kg/ha): 3.0; ECHCG herbicidal rating ([2]; rate 0.1250 kg/ha): 3.0; SETVI herbicidal rating ([3]; rate 0.1250 kg/ha): 3.0; TRZAWR herbicidal rating ([4]; rate 0.1250 kg/ha): 4.0; ZEAMX herbicidal rating ([5]; rate 0.1250 kg/ha): 7.0; herbicidal rating, ECHORC ([8]; rate 0.0080 kg/ha): 0.0; herbicidal rating, SAGPY ([9]; rate 0.0080 kg/ha): 0.0
COCC1COC(c2nsc3ccc(-n4c(=O)cc(C(F)(F)F)n(C)c4=O)cc23)O1 (stereo not drawn) [Compound 64, 3-[3-[4-(methoxymethyl)-1,3-dioxolan-2-yl]-1,2-benzisothiazol-5-yl]-1-methyl-6-(trifluoromethyl)uracil] | 9.0 | 9.0 | 3.0 | 5.0 | 6.0 | 4.0 | 5.0 | 5.5 | 5.5 | 9.0 | 9.0 | 9.0 | 8.5 | 9.0 | 9.0 | 9.0 | 9.0 | 3.0 | 9.0 | 7.0 | herbicidal rating, ECHORC ([8]; rate 0.0080 kg/ha): 1.5; herbicidal rating, SAGPY ([9]; rate 0.0080 kg/ha): 0.0
Cc1sccc1-c1nsc2ccc(-n3c(=O)cc(C(F)(F)F)n(C)c3=O)cc12 [Compound 68, 2,4(1H,3H)-pyrimidinedione, 1-methyl-3-[3-(2-methyl-3-thienyl)-1,2-benzisothiazol-5-yl]-6-(trifluoromethyl)-] | 9.0 | 9.0 | 4.0 | 5.0 | 4.0 | 4.0 | 4.5 | 5.5 | 6.0 | 7.0 | 6.0 | 9.0 | 2.0 | 3.5 | 5.0 | 8.5 | 9.0 | 0.0 | 9.0 | 8.0 | herbicidal rating, ECHORC ([8]; rate 0.0080 kg/ha): 7.0; herbicidal rating, SAGPY ([9]; rate 0.0080 kg/ha): 0.0
Cn1c(C(F)(F)F)cc(=O)n(-c2ccc3snc(C4OCC(CCl)O4)c3c2)c1=O (stereo not drawn) [Compound 72, 3-[3-[4-(chloromethyl)-1,3-dioxolan-2-yl]-1,2-benzisothiazol-5-yl]-1-methyl-6-(trifluoromethyl)uracil] | 9.0 | 9.0 | 3.0 | 3.0 | 8.0 | 3.5 | 4.5 | 5.0 | 5.0 | 8.0 | 9.0 | 9.0 | 8.5 | 8.5 | 9.0 | 9.0 | 9.0 | 0.0 | 8.0 | 8.0 | herbicidal rating, ECHORC ([8]; rate 0.0080 kg/ha): 5.0; herbicidal rating, SAGPY ([9]; rate 0.0080 kg/ha): 0.0
Cn1c(C(F)(F)F)cc(=O)n(-c2ccc3snc(-c4sccc4CO)c3c2)c1=O [Compound 85, 3-[3-[3-(hydroxymethyl)-2-thienyl]-1,2-benzisothiazol-5-yl]-1-methyl-6-(trifluoromethyl)uracil] | 4.0 | 6.0 | 0.0 | 2.0 | 5.0 | 2.0 | 3.5 | 4.5 | 5.0 |  |  |  |  |  |  |  | 8.0 |  | 7.0 | 9.0 | Preemergence herbicidal rating GALAP [6, 10]: 4.0; Preemergence herbicidal rating GALAP [6, 11]: 6.0; Preemergence herbicidal rating GALAP [6, 12]: 9.0; Preemergence herbicidal rating ORYSAT [7, 10]: 2.0; Preemergence herbicidal rating ORYSAT [7, 11]: 6.0; Preemergence herbicidal rating ORYSAT [7, 12]: 7.0; ECHORC herbicidal rating ([8]; rate 0.0080 kg/ha): 0.0; ECHORC herbicidal rating ([8]; rate 0.0320 kg/ha): 5.0; SAGPY herbicidal rating ([9]; rate 0.0080 kg/ha): 0.0; SAGPY herbicidal rating ([9]; rate 0.0320 kg/ha): 1.5
C=C1COC(c2nsc3ccc(-n4c(=O)cc(C(F)(F)F)n(C)c4=O)cc23)OC1 [Compound 58, 2,4(1H,3H)-pyrimidinedione, 1-methyl-3-[3-(5-methylene-m-dioxan-2-yl)-1,2-benzisothiazol-5-yl]-6-(trifluoromethyl)-] | 7.0 | 9.0 | 1.0 | 3.0 | 1.0 | 4.0 | 4.5 | 5.5 | 5.5 | 9.0 | 9.0 | 9.0 | 8.5 | 9.0 | 9.0 | 6.0 | 9.0 | 2.0 | 5.0 | 6.0 | 
CC(C)C1COC(c2nsc3ccc(-n4c(=O)cc(C(F)(F)F)n(C)c4=O)cc23)=N1 (stereo not drawn) [Compound 74, 3-[3-(4-isopropyl-2-oxazolin-2-yl)-1,2-benzisothiazol-5-yl]-1-methyl-6-(trifluoromethyl)uracil] | 6.0 | 8.0 | 2.0 | 2.0 | 2.0 | 3.5 | 4.0 | 5.0 | 5.0 | 6.0 | 7.0 | 9.0 | 1.0 | 1.0 | 5.0 | 8.0 | 9.0 | 1.5 | 7.0 | 2.0 | herbicidal rating, ECHORC ([8]; rate 0.0080 kg/ha): 5.5; herbicidal rating, SAGPY ([9]; rate 0.0080 kg/ha): 0.0
